These results are taken from ChEMBL document CHEMBL1287647, “Synthesis and characterization of a iodine-125-labeled pyrrolo[1,2-a]thieno[3,2-e]pyrazine and evaluation as a potential 5-HT4R SPECT tracer” (Eur J Med Chem, 2010).

The target of assay [1] is 5-hydroxytryptamine receptor 4 (Cavia porcellus, UniProt O70528). The assay can be described thus: Displacement of [3H]GR113808 from 5HT4 receptor in guinea pig striatal membranes. The format is cell membranes, Striatum, Membrane. Background: Displacement assays read how much labelled ligand stays bound in the presence of the test substance.
Sequence of 5-hydroxytryptamine receptor 4 (O70528 whole entry): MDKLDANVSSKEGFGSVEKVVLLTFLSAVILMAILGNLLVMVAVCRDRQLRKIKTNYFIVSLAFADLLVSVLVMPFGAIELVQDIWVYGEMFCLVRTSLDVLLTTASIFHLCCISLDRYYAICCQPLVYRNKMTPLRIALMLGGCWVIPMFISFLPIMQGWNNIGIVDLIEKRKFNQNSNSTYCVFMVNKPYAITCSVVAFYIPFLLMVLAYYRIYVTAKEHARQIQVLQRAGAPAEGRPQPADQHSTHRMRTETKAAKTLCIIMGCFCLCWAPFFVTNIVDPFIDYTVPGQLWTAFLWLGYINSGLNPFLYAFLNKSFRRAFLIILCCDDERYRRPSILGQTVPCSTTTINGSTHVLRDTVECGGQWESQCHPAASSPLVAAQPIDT
Assay [2] addresses 5-hydroxytryptamine receptor 4 (Cavia porcellus) (UniProt O70528). As to the kind of experiment: Displacement of [3H]GR113808 from 5HT4 receptor in guinea pig striatal membranes at 1 uM. Particulars: Striatum, Membrane. The class given is cell membranes.

Sequence of 5-hydroxytryptamine receptor 4 (Cavia porcellus) (O70528 whole entry): as above

A word on the Ki: it is the equilibrium dissociation constant of an inhibitor or competing ligand from its target. The inhibition is how much of the control response was suppressed. Read a high inhibition as strong suppression. The molecule `C#CCN1CCC(COc2nc3scc(C)c3n3cccc23)CC1` had a Ki in assay [1] of 891 nM. Further, in assay [2], the inhibition came to 85%.
As to `Cc1csc2nc(OCC3CCN(C/C=C/I)CC3)c3cccn3c12`, the affinity in assay [1] corresponds to a Ki of 129 nM. In addition, the inhibition in assay [2] turned out to be 87%.
